# Laboratory results: ChEMBL document CHEMBL6134859, “Unlocking the antiviral arsenal: Structure-guided optimization of small-molecule inhibitors against RSV and hCoV-229E” (Eur J Med Chem, 2025)
# Assay: Kinetic solubility of the compound in 1%DMSO/PBS measured after 5 mins
# Format: physicochemical
# Conditions: read-out: Kinetic_solubility
row,Structure (SMILES),solubility kinetic at 5 min
1,COc1ccc(C(C)=O)cc1COc1ncnc2c(-c3ccncc3)cccc12,32 µM
2,COc1ccc(C(C)=O)cc1COc1ncnc2cccc(Cl)c12,54 µM
3,COc1ccc(C(C)=O)cc1CNc1ncnc2c(Cl)cc(Cl)cc12,> 100 µM
4,COc1ccc(C(C)=O)cc1COc1ncnc2c(C)cccc12,57 µM
5,Clc1cc(Cl)c2ncnc(OCc3ccc(Br)cc3)c2c1,12 µM
6,COC(=O)c1ccccc1COc1ncnc2c(Cl)cc(Cl)cc12,22 µM
7,CCc1ccc(OC)c(COc2ncnc3c(Cl)cc(Cl)cc23)c1,34 µM
8,COc1ccc(C(C)=O)cc1C(=O)Nc1ncnc2c(Cl)cc(Cl)cc12,> 100 µM
9,COc1ccc(C(C)=O)cc1COc1ncnc2c(F)cccc12,> 100 µM
10,COc1ccc(C(C)=O)cc1CSc1ncnc2c(Cl)cc(Cl)cc12,17 µM
11,Clc1cc(Cl)c2ncnc(OCc3cccc4c3OCO4)c2c1,21 µM
12,O=C(O)c1cccc(COc2ncnc3c(Cl)cc(Cl)cc23)c1,> 100 µM
13,COc1ccc(C(C)=O)cc1COc1ncnc2c(Cl)ccc(Cl)c12,37 µM
14,COc1cccc(COc2ncnc3c(Cl)cc(Cl)cc23)c1,22 µM
15,COc1ccc(C(C)=O)cc1COc1ncnc2c(S(C)(=O)=O)cccc12,> 100 µM
16,COc1ccc(C(C)=O)cc1COc1ncnc2c(Br)cccc12,41 µM
17,COc1ccc(C(C)=O)cc1COc1ncnc2c(OCc3cc(C(C)=O)ccc3OC)cccc12,53 µM
18,Clc1cc(Cl)c2ncnc(OCc3ccccc3-c3ccccc3)c2c1,16 µM
19,COc1ccc(C(C)=O)cc1COc1ncnc2ccc(Cl)cc12,60 µM
20,COc1ccc(C(C)=O)cc1COc1ncnc2c(C#N)cccc12,> 100 µM
21,Clc1cc(Cl)c2ncnc(OCc3ccccc3Br)c2c1,20 µM

row,Structure (SMILES),solubility kinetic at 5 min
1,COC(=O)c1cccc2c(OCc3cc(C(C)=O)ccc3OC)ncnc12,> 100 µM
2,COc1ccc(C(C)=O)cc1COc1ncnc2cc(Cl)ccc12,26 µM
3,Clc1cc(Cl)c2ncnc(OCc3ccccc3-c3cccnc3)c2c1,60 µM
4,O=C(O)c1ccccc1COc1ncnc2c(Cl)cc(Cl)cc12,> 100 µM
5,COc1ccc(C(C)=O)cc1COc1ncnc2c(-c3ccccc3)cccc12,35 µM
6,CC(=O)c1cccc(COc2ncnc3c(Cl)cc(Cl)cc23)c1,46 µM
7,COc1ccc(C(C)=O)cc1COc1ncnc2c(Cl)cc(C)cc12,66 µM
8,O=C(O)c1ccc(COc2ncnc3c(Cl)cc(Cl)cc23)cc1,> 100 µM
9,COc1ccc(C(C)=O)cc1COc1ncnc2c(Cl)cc(Cl)cc12,62 µM
10,COCCOc1ccccc1COc1ncnc2c(Cl)cc(Cl)cc12,42 µM
11,COc1ccc(C(C)=O)cc1COc1ncnc2c(C)cc(C)cc12,> 100 µM
12,Cc1ccc(COc2ncnc3c(Cl)cc(Cl)cc23)cc1,12 µM
13,COc1ccc(C(C)=O)cc1COc1ncnc2c(C)cc(Cl)cc12,50 µM
14,Clc1ccc(COc2ncnc3c(Cl)cc(Cl)cc23)cc1,18 µM
15,CCc1ccccc1COc1ncnc2c(Cl)cc(Cl)cc12,28 µM
16,COc1ccc(C(C)=O)cc1COc1ncnc2c(C3CC3)cccc12,27 µM
17,COc1cccc(OC)c1COc1ncnc2c(Cl)cc(Cl)cc12,21 µM
18,COc1cc(COc2ncnc3c(Cl)cc(Cl)cc23)cc(C(C)=O)c1,21 µM
19,COc1ccc(C(C)=O)cc1COc1ncnc2c(N3CCOCC3)cccc12,> 100 µM
20,COc1ccc(COc2ncnc3c(Cl)cc(Cl)cc23)cc1C(C)=O,39 µM
21,COc1ccc(C(C)=O)cc1COc1ncnc2cc(Cl)cc(Cl)c12,41 µM

row,Structure (SMILES),solubility kinetic at 5 min
1,COc1ccc(C(C)=O)cc1COc1ncnc2c(O)cccc12,55 µM
2,Fc1ccc(COc2ncnc3c(Cl)cc(Cl)cc23)cc1,22 µM
3,COc1ccc(C(C)=O)cc1COc1ncnc2c(C(F)(F)F)cccc12,33 µM
4,COc1cccc(C(C)=O)c1COc1ncnc2c(Cl)cc(Cl)cc12,44 µM
5,COc1ccc(COc2ncnc3c(Cl)cc(Cl)cc23)cc1,44 µM
6,COc1cc(C(C)=O)ccc1COc1ncnc2c(Cl)cc(Cl)cc12,26 µM
7,N#Cc1ccc(COc2ncnc3c(Cl)cc(Cl)cc23)cc1,25 µM
8,CC(=O)c1ccc(-c2cccnc2)c(COc2ncnc3c(Cl)cc(Cl)cc23)c1,> 100 µM
9,COc1ccc(C(C)=O)cc1COc1ncnc2c(Cl)cccc12,58 µM
10,COc1ccc(C(C)=O)cc1COc1ncnc2c(OC)cccc12,> 100 µM
11,Fc1ccccc1COc1ncnc2c(Cl)cc(Cl)cc12,26 µM
12,Clc1cc(Cl)c2ncnc(OCc3ccccc3)c2c1,25 µM
13,COC(=O)c1ccc(COc2ncnc3c(Cl)cc(Cl)cc23)cc1,25 µM
14,COc1c(COc2ncnc3c(Cl)cc(Cl)cc23)cccc1C(C)=O,57 µM
15,COc1ccccc1COc1ncnc2c(Cl)cc(Cl)cc12,32 µM
16,CCc1ccc(C(C)=O)cc1COc1ncnc2c(Cl)cc(Cl)cc12,21 µM
17,FC(F)(F)c1ccc(COc2ncnc3c(Cl)cc(Cl)cc23)cc1,18 µM
18,COc1ccccc1CSc1ncnc2c(Cl)cc(Cl)cc12,24 µM
19,CC(=O)c1ccccc1COc1ncnc2c(Cl)cc(Cl)cc12,43 µM
